Measured values taken from the NIST ThermoML archive (doi:10.1016/j.fluid.2013.01.015).
Numbers after ± are expanded uncertainties.

Experiments:
[1] = refractive index (Na D-line) (dimensionless); details: 298.15 K; 101.33 kPa; Liquid; Standard Abbe refractometry
[2] = 298.15 K; 101.33 kPa; Liquid; Vibrating tube method

SMILES | refractive index [1] | mass density [2]
Cc1ccccc1C [1,2-dimethylbenzene] | 1.49466 ± 0.00072 | 859.54 ± 0.14 kg/m3
Cc1cccc(C)c1 [1,3-dimethylbenzene] | 1.49464 ± 0.00072 | 859.95 ± 0.14 kg/m3
Cc1ccc(C)cc1 [1,4-dimethylbenzene] | 1.4958 ± 0.0007 | 856.71 ± 0.14 kg/m3
CCCCCCCC [octane] | 1.3951 ± 0.0007 | 698.61 ± 0.17 kg/m3
